From US20260138958A1, “SUBSTITUTED N-PHENYLURACILS AND SALTS THEREOF, AND USE THEREOF AS HERBICIDAL ACTIVE SUBSTANCES” (Bayer Aktiengesellschaft, priority 2022, published 2026)

What was measured:
Type in all cases: in vivo
[1] = system: Amaranthus retroflexus (AMARE); experiment: Post-emergence herbicidal action, greenhouse pot test; conditions: Amaranthus retroflexus, 504 h; for pest or weed control at 1.25 g/ha: read-out: Post-emergence effect at 1.25 g/ha against AMARE in %; for pest or weed control at 5 g/ha: read-out: Post-emergence effect at 5 g/ha against AMARE in %; for pest or weed control at 20 g/ha: read-out: Post-emergence effect at 20 g/ha against AMARE in %
How it was run: (§1)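 Post-em greenhouse pots, sandy loam; one-leaf stage (2–3 wk after sowing); WP/EC spray, aq. suspension/emulsion + 0.5% additive, 600 l/ha; optimum conditions ~3 wk; visual % activity vs untreated (100% = dead).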

[2] = system: Echinochloa crus-galli (ECHCG); experiment: as above; conditions: for pest or weed control at 20 g/ha: Echinochloa crus-galli, 504 h, read-out: Post-emergence effect at 20 g/ha against ECHCG in %
How it was run: as §1

[3] = system: Digitaria sanguinalis (DIGSA); experiment: as above
How it was run: as §1

Viola tricolor (VIOTR) = experiment: as above; conditions: for pest or weed control at 20 g/ha: Viola tricolor, 504 h, read-out: Post-emergence effect at 20 g/ha against VIOTR in %
How it was run: as §1

[4] = system: Tripleurospermum inodorum (MATIN); experiment: as above; conditions: Tripleurospermum inodorum, 504 h, 20 g/ha, read-out: Post-emergence effect at 20 g/ha against MATIN in %
How it was run: as §1

[5] = system: Abutilon theophrasti (ABUTH); experiment: as above; conditions: for pest or weed control at 5 g/ha / pest or weed control at 20 g/ha: Abutilon theophrasti, 504 h; for pest or weed control at 5 g/ha: read-out: Post-emergence effect at 5 g/ha against ABUTH in %; for pest or weed control at 20 g/ha: read-out: Post-emergence effect at 20 g/ha against ABUTH in %
How it was run: as §1

[6] = system: Pharbitis purpurea (PHBPU); experiment: as above; conditions: for pest or weed control at 5 g/ha / pest or weed control at 20 g/ha: Ipomoea purpurea, 504 h; for pest or weed control at 5 g/ha: read-out: Post-emergence effect at 5 g/ha against PHBPU in %; for pest or weed control at 20 g/ha: read-out: Post-emergence effect at 20 g/ha against PHBPU in %
How it was run: as §1

[7] = system: Polygonum convolvulus (POLCO); experiment: as above; conditions: Fallopia convolvulus, 504 h; for pest or weed control at 5 g/ha: read-out: Post-emergence effect at 5 g/ha against POLCO in %; for pest or weed control at 20 g/ha: read-out: Post-emergence effect at 20 g/ha against POLCO in %
How it was run: as §1

[8] = system: Alopecurus myosuroides (ALOMY); experiment: as above; conditions: for pest or weed control at 20 g/ha: Alopecurus myosuroides, 504 h, read-out: Post-emergence effect at 20 g/ha against ALOMY in %
How it was run: as §1

Bassia scoparia (KCHSC) = experiment: as above
How it was run: as §1

Veronica persica (VERPE) = experiment: as above; conditions: for pest or weed control at 5 g/ha / pest or weed control at 20 g/ha: Veronica persica, 504 h; for pest or weed control at 5 g/ha: read-out: Post-emergence effect at 5 g/ha against VERPE in %; for pest or weed control at 20 g/ha: read-out: Post-emergence effect at 20 g/ha against VERPE in %
How it was run: as §1

Setaria viridis (SETVI) = experiment: as above; conditions: for pest or weed control at 5 g/ha / pest or weed control at 20 g/ha: Setaria viridis, 504 h; for pest or weed control at 5 g/ha: read-out: Post-emergence effect at 5 g/ha against SETVI in %; for pest or weed control at 20 g/ha: read-out: Post-emergence effect at 20 g/ha against SETVI in %
How it was run: as §1

crop plants = experiment: Post-emergence crop plant compatibility, summary statements over several crops; conditions: 5 g or less per hectare, ORYSA, ZEAMX, TRZAS
Method: (§2) Seeds of monocotyledonous and dicotyledonous weeds and crop plants were placed in sandy loam in plastic or wood-fibre pots, covered with soil and cultivated in a greenhouse under controlled growth conditions. 2 to 3 weeks after sowing, the test plants were treated at the one-leaf stage. The compounds of the invention, formulated in the form of wettable powders (WP) or as emulsion concentrates (EC), were then sprayed onto the green parts of the plants as aqueous suspension or emulsion with addition of 0.5% additive at a water application rate of 600 l/ha (converted). After the test plants had been kept in the greenhouse under optimum growth conditions for about 3 weeks, the activity of the preparations was rated visually in comparison to untreated controls. For example, 100% activity=the plants have died, 0% activity=like control plants.
The observed effects on selected crop plants are reported here in comparison to the untreated controls (values in %).

[9] = system: Triticum aestivum (TRZAS); experiment: Post-emergence crop plant compatibility, greenhouse pot test; conditions: Triticum aestivum, in vivo
How it was run: (§3)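 Visual % damage scores were taken roughly 3 weeks after treatment, relative to untreated plants, where 100% means plants died and 0% means no difference. Plants received aqueous sprays (WP or EC, 0.5% additive, 600 l/ha) on green parts at the one-leaf stage, 2–3 weeks after sowing.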

harmful plants = experiment: Post-emergence herbicidal action, summary statements over several weeds; conditions: 20 g or less per hectare, ALOMY, ECHCG, AVEFA, VERPE
Method: as §2

Zea mays (ZEAMX) = experiment: Post-emergence crop plant compatibility, greenhouse pot test; conditions: Zea mays, in vivo
How it was run: as §3

Cn1c(C(F)(F)F)cc(=O)n(-c2cc(Oc3ccccc3OCC(=O)OCC3CCCCC3)c(Cl)cc2F)c1=O [I.7-14]
90%: Post-emergence effect at 1.25 g/ha against ECHCG in % [2] | pest or weed control at 20 g/ha [4]
distinctly improved compatibility: compatibility with crop plants by comparison with a-27, a-29 or a generically encompassed structure (WO2002/098227) (crop plants)
distinctly improved herbicidal efficacy: herbicidal efficacy by comparison with a-27, a-29 or a generically encompassed structure (WO2002/098227) (harmful plants)
20%: Post-emergence effect at 1.25 g/ha against TRZAS in % [9]
100%: pest or weed control at 1.25 g/ha [1] | pest or weed control at 5 g/ha [1] | pest or weed control at 20 g/ha [1] | Post-emergence effect at 5 g/ha against ECHCG in % [2] | pest or weed control at 20 g/ha [2] | Post-emergence effect at 5 g/ha against DIGSA in % [3] | Post-emergence effect at 20 g/ha against DIGSA in % [3] | Post-emergence effect at 1.25 g/ha against VIOTR in % (Viola tricolor (VIOTR)) | Post-emergence effect at 5 g/ha against VIOTR in % (Viola tricolor (VIOTR)) | pest or weed control at 20 g/ha (Viola tricolor (VIOTR)) | Post-emergence effect at 1.25 g/ha against ABUTH in % [5] | pest or weed control at 5 g/ha [5] | pest or weed control at 20 g/ha [5] | Post-emergence effect at 1.25 g/ha against PHBPU in % [6] | pest or weed control at 5 g/ha [6] | pest or weed control at 20 g/ha [6] | pest or weed control at 5 g/ha [7] | pest or weed control at 20 g/ha [7] | pest or weed control at 20 g/ha [8] | Post-emergence effect at 1.25 g/ha against KCHSC in % (Bassia scoparia (KCHSC)) | Post-emergence effect at 5 g/ha against KCHSC in % (Bassia scoparia (KCHSC)) | Post-emergence effect at 20 g/ha against KCHSC in % (Bassia scoparia (KCHSC)) | Post-emergence effect at 1.25 g/ha against VERPE in % (Veronica persica (VERPE)) | VERPE (efficacy in %) (Veronica persica (VERPE); Table B4 comparison, application rate 1.25 g/ha) | pest or weed control at 5 g/ha (Veronica persica (VERPE)) | pest or weed control at 20 g/ha (Veronica persica (VERPE)) | Post-emergence effect at 1.25 g/ha against SETVI in % (Setaria viridis (SETVI)) | pest or weed control at 5 g/ha (Setaria viridis (SETVI)) | pest or weed control at 20 g/ha (Setaria viridis (SETVI))

Cn1c(C(F)(F)F)cc(=O)n(-c2cc(Oc3ccccc3OCC(=O)OCC3CCCCCC3)c(Cl)cc2F)c1=O [I.7-16]
20%: Post-emergence effect at 1.25 g/ha against ZEAMX in % (Zea mays (ZEAMX)) | Post-emergence effect at 20 g/ha against TRZAS in % [9]
80%: Post-emergence effect at 1.25 g/ha against ABUTH in % [5] | Post-emergence effect at 1.25 g/ha against PHBPU in % [6] | Post-emergence effect at 1.25 g/ha against VERPE in % (Veronica persica (VERPE))
100%: pest or weed control at 1.25 g/ha [1] | pest or weed control at 5 g/ha [1] | pest or weed control at 20 g/ha [1] | Post-emergence effect at 1.25 g/ha against ECHCG in % [2] | Post-emergence effect at 5 g/ha against ECHCG in % [2] | pest or weed control at 20 g/ha [2] | ECHCG (efficacy in %) ([2]; Table B5 comparison, application rate 1.25 g/ha) | Post-emergence effect at 5 g/ha against DIGSA in % [3] | Post-emergence effect at 20 g/ha against DIGSA in % [3] | Post-emergence effect at 1.25 g/ha against VIOTR in % (Viola tricolor (VIOTR)) | Post-emergence effect at 5 g/ha against VIOTR in % (Viola tricolor (VIOTR)) | pest or weed control at 20 g/ha (Viola tricolor (VIOTR)) | pest or weed control at 5 g/ha [5] | pest or weed control at 20 g/ha [5] | pest or weed control at 5 g/ha [6] | pest or weed control at 20 g/ha [6] | pest or weed control at 5 g/ha [7] | pest or weed control at 20 g/ha [7] | pest or weed control at 20 g/ha [8] | Post-emergence effect at 1.25 g/ha against KCHSC in % (Bassia scoparia (KCHSC)) | Post-emergence effect at 5 g/ha against KCHSC in % (Bassia scoparia (KCHSC)) | Post-emergence effect at 20 g/ha against KCHSC in % (Bassia scoparia (KCHSC)) | pest or weed control at 5 g/ha (Veronica persica (VERPE)) | pest or weed control at 20 g/ha (Veronica persica (VERPE)) | Post-emergence effect at 1.25 g/ha against SETVI in % (Setaria viridis (SETVI)) | pest or weed control at 5 g/ha (Setaria viridis (SETVI)) | pest or weed control at 20 g/ha (Setaria viridis (SETVI))
distinctly improved herbicidal efficacy: herbicidal efficacy by comparison with a-27, a-29 or a generically encompassed structure (WO2002/098227) (harmful plants)
90%: Post-emergence effect at 1.25 g/ha against DIGSA in % ([3]; 1.25 g/ha) | pest or weed control at 20 g/ha [4] | Post-emergence effect at 5 g/ha against ALOMY in % ([8]; 5 g/ha)
10%: Post-emergence effect at 1.25 g/ha against TRZAS in % [9]
distinctly improved compatibility: compatibility with crop plants by comparison with a-27, a-29 or a generically encompassed structure (WO2002/098227) (crop plants)
